Structures can show the parent of a compound that is named as a salt.
Key:
[1] = tested on: adjuvant arthritis (AA) of rats; assay: anti-arthritic activity in the animal model of adjuvant arthritis (AA) of rats, foot swelling by drainage method; assay type: in vivo; set-up: key to The average swelling degree before administration (X ± s) / Average swelling degree after administration (X ± s): (toe volume after − before inflammation)/volume before; fraction; conditions: rat adjuvant arthritis; for The average swelling degree before administration (X ± s): foot swelling degree before administration (baseline); for The average swelling degree before administration (X ± s) / Average swelling degree after administration (X ± s): n=10; for Average swelling degree after administration (X ± s): gavage 50 μg/dose/day for consecutive 5 days
Method: The study on the anti-arthritic activity of the compounds of the present disclosure was conducted based on the animal model of adjuvant arthritis (AA) of rats and on the establishment of adjuvant arthritis of rats. The rats were divided into 14 groups, with 10 rats in each group, and the rats were administered by gavage the compound of the present disclosure, a blank control, and a positive control substance of Iguratimod at a dose of 50 μg/dose/day for consecutive 5 days. A drainage method was used to determine the degree of foot swelling in rats of each group before and after administration, and the degree of foot swelling in rats before and after administration was calculated to determine whether the drug was effective.
Foot swelling degree X=(volume of the toe after inflammation−volume of toe before inflammation)/volume of the toe before inflammation×100%.

healthy rats = assay: content of aminotransferase in the serum of healthy rats after oral administration for 15 days; assay type: in vivo; conditions: for ALT / AST: serum of healthy rats, oral administration for 15 days, n=10
Method: Elevated aminotransferase is a common side effect of Iguratimod. To investigate whether the compounds of the present disclosure have effects on aminotransferase, healthy rats were administered orally the compound of the present disclosure and Iguratimod for 15 days, respectively, and then the content of aminotransferase in the serum of rats was determined.

Compound | The average swelling degree before administration (X ± s) [1] | Average swelling degree after administration (X ± s) [1] | ALT (healthy rats) | AST (healthy rats) | side effects (aminotransferase elevation) compared with Iguratimod (healthy rats; healthy rats, oral, conclusion in words) | anti-inflammatory effect compared with Iguratimod ([1]; conclusion in words)
CS(=O)(=O)Nc1cc2scc(NC=O)c(=O)c2cc1Oc1ccccc1 [Compound 1 potassium salt] | 0.455 ± 0.0279 | 0.020 ± 0.0323 | 126 ± 10.05 U/L | 78 ± 8.74 U/L |  | 
CS(=O)(=O)Nc1cc2scc(NC=O)c(=O)c2cc1Oc1ccccc1 [Compound 1 sodium salt] | 0.450 ± 0.0284 | 0.023 ± 0.0306 | 129 ± 10.18 U/L | 76 ± 9.22 U/L |  | 
CS(=O)(=O)Nc1cc2scc(NC=O)c(=O)c2cc1Oc1ccccc1 [Compound 1, 3-formamido-7-methylsulfonamido-6-phe noxy-4H-I-thiobenzopyran-4-one] | 0.453 ± 0.0290 | 0.020 ± 0.0335 | 125 ± 10.24 U/L | 75 ± 8.22 U/L |  | 
CS(=O)(=O)Nc1cc2scc(NC=O)c(=O)c2cc1Sc1ccccc1 [Compound 2 potassium salt] | 0.453 ± 0.0290 | 0.021 ± 0.0335 | 109 ± 9.11 U/L | 77 ± 9.02 U/L |  | 
CS(=O)(=O)Nc1cc2scc(NC=O)c(=O)c2cc1Sc1ccccc1 [Compound 2 sodium salt] | 0.448 ± 0.0291 | 0.020 ± 0.0325 | 104 ± 9.05 U/L | 76 ± 9.56 U/L |  | 
CS(=O)(=O)Nc1cc2scc(NC=O)c(=O)c2cc1Sc1ccccc1 [Compound 2, 3-formamido-7-methylsulfonamido-6-phenylthio-4H-1-thiobenzopyran-4-one] | 0.430 ± 0.0312 | 0.019 ± 0.0315 | 108 ± 9.43 U/L | 80 ± 9.28 U/L | further weaker side effects | 
CS(=O)(=O)Nc1cc2scc(NC=O)c(=O)c2cc1[S+]([O-])c1ccccc1 (stereo not drawn) [Compound 3 potassium salt] | 0.454 ± 0.0277 | 0.023 ± 0.0330 | 141 ± 7.89 U/L | 89 ± 8.91 U/L |  | 
CS(=O)(=O)Nc1cc2scc(NC=O)c(=O)c2cc1[S+]([O-])c1ccccc1 (stereo not drawn) [Compound 3 sodium salt] | 0.438 ± 0.0229 | 0.022 ± 0.0333 | 140 ± 8.83 U/L | 87 ± 9.06 U/L |  | 
CS(=O)(=O)Nc1cc2scc(NC=O)c(=O)c2cc1[S+]([O-])c1ccccc1 (stereo not drawn) [Compound 3] | 0.449 ± 0.0305 | 0.025 ± 0.0339 | 143 ± 7.83 U/L | 90 ± 8.76 U/L |  | 
CS(=O)(=O)Nc1cc2scc(NC=O)c(=O)c2cc1S(=O)(=O)c1ccccc1 [Compound 4 potassium salt] | 0.418 ± 0.0198 | 0.019 ± 0.0274 | 132 ± 8.79 U/L | 85 ± 6.87 U/L |  | 
CS(=O)(=O)Nc1cc2scc(NC=O)c(=O)c2cc1S(=O)(=O)c1ccccc1 [Compound 4 sodium salt] | 0.435 ± 0.0290 | 0.018 ± 0.0303 | 130 ± 9.15 U/L | 83 ± 8.09 U/L |  | 
CS(=O)(=O)Nc1cc2scc(NC=O)c(=O)c2cc1S(=O)(=O)c1ccccc1 [Compound 4, N-(7-(methylsulfonamido)-4-oxo-6-(phenylsulfonyl)-4H-thiobenzopyran-3-yl)carboxamide] | 0.425 ± 0.0247 | 0.017 ± 0.0305 | 133 ± 9.04 U/L | 79 ± 9.82 U/L |  | better anti-inflammatory effect
CS(=O)(=O)Nc1cc2occ(NC=O)c(=O)c2cc1Oc1ccccc1 [Iguratimod, 3-formamido-7-methylsulfonamido-6-phenoxy-4H-1-benzopyran-4-one, reference compound] | 0.445 ± 0.0321 | 0.029 ± 0.0389 | 173 ± 9.86 U/L | 145 ± 10.98 U/L |  | 
